{
  "source": "patent US20210128534A1",
  "about": "“DRUG DELIVERY SYSTEMS” (YISSUM RESEARCH DEVELOPMENT COMPANY OF THE HEBREW …, priority 2018, published 2021)",
  "key": {"[1]": {"assay": "Dexamethasone palmitate solubility in FDA approved oils for ophthalmic use", "type": "physicochemical", "procedure": "8.1 Solubility in FDA Approved Oils for Ophthalmic Use\nDexamethasone palmitate solubility was assessed in mineral oil, castor oil and MCT."}, "[2]": {"assay": "Reconstitution stability of lyophilized tacrolimus NCs in isotonic aqueous solution", "type": "physicochemical", "conditions": "room temperature"}, "[3]": {"conditions": "cited from earlier work"}},
  "data": [
    {"compound": "CCCCCCCCCCCCCCCC(=O)OCC(=O)[C@@]1(O)[C@H](C)C[C@H]2[C@@H]3CCC4=CC(=O)C=C[C@]4(C)[C@@]3(F)[C@@H](O)C[C@@]21C", "note": "[Dexamethasone, Dexamethasone palmitate]", "values": [
      {"measurement": "Concentration", "setting": "[1]; solubility in Castor oil", "value": 33600, "unit": "µg/mL"},
      {"measurement": "Concentration", "setting": "[1]; solubility in MCT", "value": 46600, "unit": "µg/mL"},
      {"measurement": "Concentration", "setting": "[1]; solubility in Mineral oil", "value": 1300, "unit": "µg/mL"}
    ]},
    {"compound": "C=CC[C@@H]1/C=C(\\C)C[C@H](C)C[C@H](OC)[C@H]2O[C@@](O)(C(=O)C(=O)N3CCCC[C@H]3C(=O)O[C@H](/C(C)=C/[C@@H]3CC[C@@H](O)[C@H](OC)C3)[C@H](C)[C@@H](O)CC1=O)[C@H](C)C[C@@H]2OC", "note": "[Tacrolimus]", "values": [
      {"measurement": "time the active remained stable in aqueous formulation", "setting": "[2]", "value": "at least 2 weeks"}
    ]},
    {"compound": "Cyclosporine A [CsA]", "values": [
      {"measurement": "skin levels reported to be active for psoriasis", "setting": "[3]; equivalent to 1 ng/mg", "value": 1000, "unit": "ng/g"},
      {"measurement": "CsA concentration associated with good clinical response", "setting": "[3]; human patients with psoriasis, 12-hour trough", "value": "higher than 100 ng/ml"}
    ]}
  ]
}
